Measurements: ChEMBL document CHEMBL5154765, “Design, synthesis, and biological evaluation of novel spiro[pyrrolidine-2,3'-quinolin]-2'-one derivatives as potential chitin synthase inhibitors and antifungal agents” (Eur J Med Chem, 2022)
In brackets after ≈: the same amount, converted by molar mass. Activity calls are given as the source filed them. No cut-off for these calls is given here.

What was measured:
[1] = test system: Candida albicans; experiment: Antifungal activity against Candida albicans ATCC 76615 assessed as reduction in fungal growth incubated for 24 hrs by two fold broth dilution method; format: functional
[2] = test system: Cryptococcus neoformans; experiment: Synergistic antifungal activity against Cryptococcus neoformans ATCC 32719 assessed as fractional inhibitory concentration index incubated for 72 hrs in presence of fluconazole by checker board assay; format: functional
[3] = test system: Cryptococcus neoformans; experiment: Antifungal activity against Cryptococcus neoformans ATCC 32719 assessed as reduction in fungal growth incubated for 24 hrs by two fold broth dilution method; format: functional
[4] = test system: Aspergillus fumigatus; experiment: Antifungal activity against Aspergillus fumigatus GIMCC 3.19 assessed as fluconazole MIC incubated for 72 hrs by checker board assay; format: functional
[5] = test system: Aspergillus flavus; experiment: Synergistic antifungal activity against Aspergillus flavus ATCC 16870 assessed as fractional inhibitory concentration index incubated for 72 hrs in presence of fluconazole by checker board assay; format: functional
[6] = test system: Aspergillus fumigatus; experiment: Antifungal activity against Aspergillus fumigatus GIMCC 3.19 assessed as reduction in fungal growth in presence of sorbitol incubated for 24 hrs by two fold broth dilution method; format: functional
[7] = test system: Candida albicans; experiment: Antifungal activity against Candida albicans ATCC 76615 incubated for 72 hrs in presence of polyoxin B by checker board assay; format: functional
[8] = test system: Aspergillus flavus; experiment: Antifungal activity against Aspergillus flavus ATCC 16870 assessed as fluconazole MIC incubated for 72 hrs by checker board assay; format: functional
[9] = test system: Cryptococcus neoformans; experiment: Antifungal activity against Cryptococcus neoformans ATCC 32719 incubated for 72 hrs in presence of fluconazole by checker board assay; format: functional
[10] = Inhibition of Candida tropicalis ATCC750 chitin synthase using UDP-GlcNAc as substrate incubated for 1 hr by microplate reader analysis
[11] = test system: Candida albicans; experiment: Synergistic antifungal activity against Candida albicans ATCC 76615 assessed as fractional inhibitory concentration index incubated for 72 hrs in presence of fluconazole by checker board assay; format: functional
[12] = test system: Aspergillus flavus; experiment: Antifungal activity against Aspergillus flavus ATCC 16870 assessed as polyoxin B MIC incubated for 72 hrs by checker board assay; format: functional
[13] = test system: Candida albicans; experiment: Antifungal activity against Candida albicans ATCC 76615 assessed as reduction in fungal growth in presence of sorbitol incubated for 24 hrs by two fold broth dilution method; format: functional
[14] = test system: Aspergillus fumigatus; experiment: Antifungal activity against Aspergillus fumigatus GIMCC 3.19 assessed as reduction in fungal growth incubated for 24 hrs by two fold broth dilution method; format: functional
[15] = test system: Candida tropicalis; experiment: Noncompetitive inhibition of Candida tropicalis ATCC750 assessed as decrease in Vmax with constant Km at 0.05 to 0.15 mM using UDP-GlcNAc as substrate incubated for 10 hrs by Lineweaver-burk plot analysis; details: dose 0.05-0.15 mM
[16] = test system: Candida albicans; experiment: Antifungal activity against fluconazole resistant Candida albicans ATCC 76615 assessed as reduction in fungal growth incubated for 24 hrs by two fold broth dilution method; format: functional
[17] = test system: Cryptococcus neoformans; experiment: Synergistic antifungal activity against Cryptococcus neoformans ATCC 32719 assessed as fractional inhibitory concentration index incubated for 72 hrs in presence of polyoxin B by checker board assay; format: functional
[18] = test system: Aspergillus flavus; experiment: Antifungal activity against Aspergillus flavus ATCC 16870 assessed as reduction in fungal growth in presence of sorbitol incubated for 24 hrs by two fold broth dilution method; format: functional
[19] = test system: Candida tropicalis; experiment: Inhibition of Candida tropicalis ATCC750 chitin synthase at 300 ug/ml using UDP-GlcNAc as substrate incubated for 1 hr by microplate reader analysis relative to control; details: dose 300.0 µg/ml
[20] = test system: Candida albicans; experiment: Antifungal activity against Candida albicans ATCC 76615 assessed as polyoxin B MIC incubated for 72 hrs by checker board assay; format: functional
[21] = test system: Cryptococcus neoformans; experiment: Antifungal activity against Cryptococcus neoformans ATCC 32719 assessed as reduction in fungal growth in presence of sorbitol incubated for 24 hrs by two fold broth dilution method; format: functional
[22] = test system: Cryptococcus neoformans; experiment: Antifungal activity against Cryptococcus neoformans ATCC 32719 incubated for 72 hrs in presence of polyoxin B by checker board assay; format: functional
[23] = test system: Cryptococcus neoformans; experiment: Antifungal activity against fluconazole resistant Cryptococcus neoformans ATCC 32719 assessed as reduction in fungal growth incubated for 24 hrs by two fold broth dilution method; format: functional
[24] = test system: Aspergillus flavus; experiment: Antifungal activity against Aspergillus flavus ATCC 16870 assessed as reduction in fungal growth incubated for 24 hrs by two fold broth dilution method; format: functional
[25] = test system: Candida albicans; experiment: Antifungal activity against Candida albicans ATCC 76615 assessed as fluconazole MIC incubated for 72 hrs by checker board assay; format: functional
[26] = test system: Aspergillus fumigatus; experiment: Antifungal activity against fluconazole resistant Aspergillus fumigatus GIMCC 3.19 assessed as reduction in fungal growth incubated for 24 hrs by two fold broth dilution method; format: functional
[27] = test system: Aspergillus fumigatus; experiment: Antifungal activity against Aspergillus fumigatus GIMCC 3.19 incubated for 72 hrs in presence of polyoxin B by checker board assay; format: functional
[28] = test system: Candida albicans; experiment: Antifungal activity against micafungin resistant Candida albicans ATCC 76615 assessed as reduction in fungal growth incubated for 24 hrs by two fold broth dilution method; format: functional
[29] = test system: Aspergillus flavus; experiment: Antifungal activity against Aspergillus flavus ATCC 16870 incubated for 72 hrs in presence of polyoxin B by checker board assay; format: functional
[30] = test system: Aspergillus fumigatus; experiment: Synergistic antifungal activity against Aspergillus fumigatus GIMCC 3.19 assessed as fractional inhibitory concentration index incubated for 72 hrs in presence of fluconazole by checker board assay; format: functional
[31] = test system: Cryptococcus neoformans; experiment: Antifungal activity against Cryptococcus neoformans ATCC 32719 assessed as polyoxin B MIC incubated for 72 hrs by checker board assay; format: functional
[32] = test system: Aspergillus flavus; experiment: Antifungal activity against Aspergillus flavus ATCC 16870 incubated for 72 hrs in presence of fluconazole by checker board assay; format: functional
[33] = test system: Candida albicans; experiment: Synergistic antifungal activity against Candida albicans ATCC 76615 assessed as fractional inhibitory concentration index incubated for 72 hrs in presence of polyoxin B by checker board assay; format: functional
[34] = test system: Aspergillus flavus; experiment: Antifungal activity against fluconazole resistant Aspergillus flavus ATCC 16870 assessed as reduction in fungal growth incubated for 24 hrs by two fold broth dilution method; format: functional
[35] = Binding affinity to Candida tropicalis ATCC750 chitin synthase assessed as inhibition constant using UDP-GlcNAc as substrate incubated for 10 hrs by Lineweaver-burk plot analysis
[36] = test system: Aspergillus fumigatus; experiment: Synergistic antifungal activity against Aspergillus fumigatus GIMCC 3.19 assessed as fractional inhibitory concentration index incubated for 72 hrs in presence of polyoxin B by checker board assay; format: functional
[37] = test system: Candida albicans; experiment: Antifungal activity against Candida albicans ATCC 76615 incubated for 72 hrs in presence of fluconazole by checker board assay; format: functional
[38] = test system: Aspergillus flavus; experiment: Synergistic antifungal activity against Aspergillus flavus ATCC 16870 assessed as fractional inhibitory concentration index incubated for 72 hrs in presence of polyoxin B by checker board assay; format: functional
[39] = test system: Aspergillus fumigatus; experiment: Antifungal activity against Aspergillus fumigatus GIMCC 3.19 incubated for 72 hrs in presence of fluconazole by checker board assay; format: functional
[40] = test system: Aspergillus fumigatus; experiment: Antifungal activity against Aspergillus fumigatus GIMCC 3.19 assessed as polyoxin B MIC incubated for 72 hrs by checker board assay; format: functional
[41] = test system: Cryptococcus neoformans; experiment: Antifungal activity against Cryptococcus neoformans ATCC 32719 assessed as fluconazole MIC incubated for 72 hrs by checker board assay; format: functional

Question: Which MIC [1] does the source give for O=C(/C=C/C(=O)N1CCCC12Cc1ccccc1NC2=O)Nc1cccc([N+](=O)[O-])c1 (stereo unspecified) here?
Answer: 2 µg/mL (≈ 4.76 µM)

Question: What about the “fractional inhibitory concentration index (FICI)” value [2] of the same compound?
Answer: 0.63

Question: And the MIC [3]?
Answer: 8 µg/mL (≈ 19 µM)

Question: What about the MIC [4] of the same compound?
Answer: 4 µg/mL

Question: And the “fractional inhibitory concentration index (FICI)” value [5]?
Answer: 0.63

Question: And the MIC [6]?
Answer: 128 µg/mL

Question: And the MIC [7]?
Answer: 2 µg/mL

Question: What about the MIC [8] of the same compound?
Answer: 1 µg/mL

Question: What about the MIC [9] of the same compound?
Answer: 4 µg/mL

Question: And the IC50 [10]?
Answer: 100 µM

Question: What about the “fractional inhibitory concentration index (FICI)” value [11] of the same compound?
Answer: 0.75

Question: And the MIC [12]?
Answer: 4 µg/mL

Question: And the MIC [13]?
Answer: 16 µg/mL

Question: What about the MIC [14] of the same compound?
Answer: 4 µg/mL (≈ 9.51 µM)

Question: What about the inhibition [15] of the same compound?
Answer: Active

Question: What about the MIC [16] of the same compound?
Answer: 32 µg/mL (≈ 76.1 µM)

Question: And the “fractional inhibitory concentration index (FICI)” value [17]?
Answer: 0.75

Question: What about the MIC [18] of the same compound?
Answer: 64 µg/mL

Question: And the inhibition [19]?
Answer: 83.4%

Question: And the MIC [20]?
Answer: 4 µg/mL

Question: And the MIC [21]?
Answer: 64 µg/mL

Question: What about the MIC [22] of the same compound?
Answer: 4 µg/mL

Question: What about the MIC [23] of the same compound?
Answer: 64 µg/mL (≈ 152 µM)

Question: And the MIC [24]?
Answer: 4 µg/mL (≈ 9.51 µM)

Question: What about the MIC [25] of the same compound?
Answer: 1 µg/mL

Question: What about the MIC [26] of the same compound?
Answer: 32 µg/mL (≈ 76.1 µM)

Question: And the MIC [27]?
Answer: 4 µg/mL

Question: And the MIC [28]?
Answer: 32 µg/mL (≈ 76.1 µM)

Question: What about the MIC [29] of the same compound?
Answer: 4 µg/mL

Question: And the “fractional inhibitory concentration index (FICI)” value [30]?
Answer: 1.13

Question: And the MIC [31]?
Answer: 4 µg/mL

Question: What about the MIC [32] of the same compound?
Answer: 2 µg/mL

Question: What about the “fractional inhibitory concentration index (FICI)” value [33] of the same compound?
Answer: 1.5

Question: What about the MIC [34] of the same compound?
Answer: 32 µg/mL (≈ 76.1 µM)

Question: And the Ki [35]?
Answer: 110 µM

Question: What about the “fractional inhibitory concentration index (FICI)” value [36] of the same compound?
Answer: 1.5

Question: And the MIC [37]?
Answer: 1 µg/mL

Question: And the “fractional inhibitory concentration index (FICI)” value [38]?
Answer: 1.5

Question: What about the MIC [39] of the same compound?
Answer: 0.5 µg/mL

Question: And the MIC [40]?
Answer: 4 µg/mL

Question: And the MIC [41]?
Answer: 1 µg/mL
